Data reported in ChEMBL document CHEMBL1201862, “PubChem BioAssay data set” (2004).
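Test compounds were applied to cells in 96-well plates for 48 hours at 5 doses. Here, GI50 denotes the concentration required for 50% inhibition of growth.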 Activity calls are given as the source filed them. Cut-off read from the data, not from the text of the source: active = GI50 up to about 1.1 µM and inactive = higher.

Columns and labels:
Experiment in all cases: growth of human tumour cells (NCI), 48 h
ACHN = tested on: ACHN
SF-268 = tested on: SF-268
RXF 393 = tested on: RXF 393
COLO 205 = tested on: COLO 205
MOLT-4 = tested on: MOLT-4
HOP-62 = tested on: HOP-62
CAKI-1 = tested on: CAKI-1
UACC-62 = tested on: UACC-62
UO-31 = tested on: UO-31
HCT-15 = tested on: HCT-15
NCI-H522 = tested on: NCI-H522
786-0 = tested on: 786-0
OVCAR-5 = tested on: OVCAR-5
NCI-H226 = tested on: NCI-H226
HCT-116 = tested on: HCT-116
IGROV-1 = tested on: IGROV-1
EKVX = tested on: EKVX
A498 = tested on: A498

Row | SMILES | GI50 (ACHN) | GI50 (SF-268) | GI50 (RXF 393) | GI50 (COLO 205) | GI50 (MOLT-4) | GI50 (HOP-62) | GI50 (CAKI-1) | GI50 (UACC-62) | GI50 (UO-31) | GI50 (HCT-15) | GI50 (NCI-H522) | GI50 (786-0) | GI50 (OVCAR-5) | GI50 (NCI-H226) | GI50 (HCT-116) | GI50 (IGROV-1) | GI50 (EKVX) | GI50 (A498)
1 | CC(=O)c1c(O)ccc2c1CC(CC=O)O2 (stereo unspecified) | > 100 µM (inactive) | 88.5 µM (inactive) | > 100 µM (inactive) | > 100 µM (inactive) | > 100 µM (inactive) | > 100 µM (inactive) | > 100 µM (inactive) | 28.8 µM (inactive) | 63.2 µM (inactive) | 52.6 µM | 60.5 µM (inactive) | 69.7 µM (inactive) | > 100 µM (inactive) | > 100 µM (inactive) | 19.7 µM (inactive) | > 100 µM (inactive) |  | 
2 | CN1N=C2c3ccccc3CC[C@H]2C1c1ccccc1 (stereo partly specified) | 44.3 µM (inactive) | > 100 µM (inactive) | 17 µM (inactive) | 35.7 µM (inactive) | > 100 µM (inactive) | 47.9 µM (inactive) |  | 32.3 µM (inactive) | 19.4 µM (inactive) | 27 µM | 17.6 µM (inactive) | 63.5 µM (inactive) | > 100 µM (inactive) | 27.9 µM (inactive) | 18 µM (inactive) | 85.5 µM (inactive) | 49.3 µM (inactive) | 72.1 µM (inactive)
3 | Cc1nc(C(N)=S)sc1C(=O)CC(=O)C(=O)Nc1ccccc1[N+](=O)[O-] | > 100 µM (inactive) | > 100 µM (inactive) | > 100 µM (inactive) |  | > 100 µM (inactive) | > 100 µM (inactive) | > 100 µM (inactive) | > 100 µM (inactive) | > 100 µM (inactive) | > 100 µM | > 100 µM (inactive) | > 100 µM (inactive) | > 100 µM (inactive) |  | > 100 µM (inactive) | > 100 µM (inactive) | > 100 µM (inactive) | > 100 µM (inactive)
4 | COC(=O)CCC(NC(=S)N/N=C/c1ccccn1)C(=O)OC (stereo unspecified) | > 100 µM (inactive) | > 100 µM (inactive) | > 100 µM (inactive) | > 100 µM (inactive) | > 100 µM (inactive) | > 100 µM (inactive) |  | > 100 µM (inactive) | > 100 µM (inactive) | > 100 µM | > 100 µM (inactive) | > 100 µM (inactive) | 63.1 µM (inactive) | > 100 µM (inactive) | > 100 µM (inactive) | > 100 µM (inactive) | > 100 µM (inactive) | > 100 µM (inactive)
